Values of other authors in patent US10064856B2, “Pharmaceutical compositions” (LOCL PHARMA, INC., priority 2008, dated 2018).

Settings: more than about 0.6 to 2.0 gm, typically more than about 0.6 gm

## O=S(=O)([O-])[O-].[Zn+2] [Zinc sulfate, zinc sulfate]
  amount ingested that can induce emesis: more than 0.6 gm
